Data from US6239171A, “Tocotrienols and tocotrienol-like compounds and methods for their use” (Lipogenics, Inc., priority 1998, dated 2001).

Experiments:
[1] = test system: hypercholesterolemic swine; assay: Total cholesterol, triglyceride and glucose concentrations in tissues of hypercholesterolemic swine; format: in vivo
Method: (§1) Each group of three 5-month old swine was administered either a control diet or a control diet supplemented with 50 ppm of TRF or 50 ppm of an individual tocotrienol. […] After a 12 hour fast, serum and plasma samples were taken a 0 hrs, 21 days and 42 days from the start of the feeding period. After taking serum and plasma samples from the pigs at the end of the 42 day period, all of the swine were fasted for a total of 40 hours, followed by a 48 hour refeeding period. One swine from each group was sacrificed at that time and the liver, intestine, lung, heart, loin muscle, adipose tissue and ham muscle were removed.
We next determined the effect of tocotrienols on the total cholesterol, triglyceride and glucose concentrations in various tissues of hypercholesterolemic swine.

[2] = test system: cholesterol 7α-hydroxylase; assay: Hepatic cholesterol 7α-hydroxylase activity in chickens fed supplemented diets; format: in vivo, chicken; details: control diet + 50 ppm, 4 weeks
Method: This example measured the effects of the TRF and its components on the hepatic enzymatic activity of HMG-CoA reductase and cholesterol 7α-hydroxylase. […] The amount of feed consumed ranged from 11.19-11.60 g per chicken and the feeding period was 4 weeks. The birds were fasted for a period of 36 hours and refed for 48 hours prior to sacrifice (at 0800 hours).

chickens = assay: Plasma thromboxane B2 and platelet factor 4 in chickens fed supplemented diets; format: in vivo, chicken; details: control diet + 50 ppm, 4 weeks
Text: We next measured the effects of TRF and its components on serum levels of apolipoprotein (a)1, apolipoprotein B, triglycerides and glucose and the plasma levels of thromboxane B2 and platelet factor 4.

[3] = test system: hypercholesterolemic swine; assay: Serum cholesterol, apolipoproteins, triglycerides, glucose, insulin and glucagon in hypercholesterolemic swine; format: in vivo
Method: All assays conducted on chicken or swine serum were done following the protocols described in A. A. Qureshi et al., "Lowering Of Serum Cholesterol In Hypercholesterolemic Humans By Tocotrienols" (Palmvitee), Am. […] Plasma insulin, glucagon and TNF levels were measured using radioinnumoassay kits from Ventrex Laboratories, Inc. (Portland, Me.), ICN Biomedicals, Inc. (Costa Mesa, Calif.) and Genzyme Corp. (Cambridge, Mass.), respectively.
We next measured the effects of various tocotrienols from rice bran on HMG-CoA reductase and cholesterol 7α-hydroxylase in hypercholesterolemic swine. Since pigs are very similar to humans in their cholesterol metabolism, they provide a useful model from which to study hypercholesterolemia and related diseases. […] As a result, the pigs develop complicated atherosclerotic plaques that closely resemble advanced atherosclerotic lesions found in humans.
as §1
The experimental conditions were the same, except that the two remaining swine in each group were transferred to the unsupplemented control diet following the 42 day feeding period. After an additional 70 days, serum and plasma samples were collected from these swine after a 12 hour fast for testing.

[4] = 70 days on control diet after 42 days at 50 ppm

## CC(C)=CCC/C(C)=C/CC/C(C)=C/CCC1CCc2cc(O)ccc2O1 (stereo not drawn) [P25, 3,4-dihydro-2-(4,8,12-trimethyltrideca-3'(E),7'(E),11'-trienyl)-2H-1-benzopyran-6-ol]
[1]; 50 ppm in diet
  reduction of total cholesterol concentration in the ham muscle: 30%
  reduction of total cholesterol concentration in the liver: 37%
[1]; control diet + 50 ppm, 42 days
  TOTAL CHOLESTEROL CONCENTRATION, Adipose Tissue: 89.54 mg/100 gm
  TOTAL CHOLESTEROL CONCENTRATION, Ham Muscle: 69.17 mg/100 gm
  TOTAL CHOLESTEROL CONCENTRATION, Heart: 51.53 mg/100 gm
  TOTAL CHOLESTEROL CONCENTRATION, Intestine: 176.67 mg/100 gm
  TOTAL CHOLESTEROL CONCENTRATION, Liver: 125.21 mg/100 gm
  TOTAL CHOLESTEROL CONCENTRATION, Loin Muscle: 99.04 mg/100 gm
  TOTAL CHOLESTEROL CONCENTRATION, Lung: 68.5 mg/100 gm
  TOTAL CHOLESTEROL, Adipose Tissue, percentage of control: 81.85%
  TOTAL CHOLESTEROL, Ham Muscle, percentage of control: 69.17%
  TOTAL CHOLESTEROL, Heart, percentage of control: 82.79%
  TOTAL CHOLESTEROL, Intestine, percentage of control: 81.98%
  TOTAL CHOLESTEROL, Liver, percentage of control: 62.11%
  TOTAL CHOLESTEROL, Loin Muscle, percentage of control: 81.85%
  TOTAL CHOLESTEROL, Lung, percentage of control: 66.98%
  TOTAL GLUCOSE CONCENTRATION, Adipose Tissue: 14.96 mg/100 gm
  TOTAL GLUCOSE CONCENTRATION, Ham Muscle: 53.05 mg/100 gm
  TOTAL GLUCOSE CONCENTRATION, Heart: 45.49 mg/100 gm
  TOTAL GLUCOSE CONCENTRATION, Intestine: 56.06 mg/100 gm
  TOTAL GLUCOSE CONCENTRATION, Liver: 362.99 mg/100 gm
  TOTAL GLUCOSE CONCENTRATION, Loin Muscle: 53.01 mg/100 gm
  TOTAL GLUCOSE CONCENTRATION, Lung: 60.96 mg/100 gm
  TOTAL GLUCOSE, Adipose Tissue, percentage of control: 81.57%
  TOTAL GLUCOSE, Ham Muscle, percentage of control: 98.57%
  TOTAL GLUCOSE, Heart, percentage of control: 92.37%
  TOTAL GLUCOSE, Intestine, percentage of control: 77.89%
  TOTAL GLUCOSE, Liver, percentage of control: 89.58%
  TOTAL GLUCOSE, Loin Muscle, percentage of control: 74.41%
  TOTAL GLUCOSE, Lung, percentage of control: 91.08%
  TOTAL TRIGLYCERIDES CONCENTRATION, Adipose Tissue: 259.62 mg/100 gm
  TOTAL TRIGLYCERIDES CONCENTRATION, Ham Muscle: 182.98 mg/100 gm
  TOTAL TRIGLYCERIDES CONCENTRATION, Heart: 140.51 mg/100 gm
  TOTAL TRIGLYCERIDES CONCENTRATION, Intestine: 345.37 mg/100 gm
  TOTAL TRIGLYCERIDES CONCENTRATION, Liver: 384.00 mg/100 gm
  TOTAL TRIGLYCERIDES CONCENTRATION, Loin Muscle: 189.18 mg/100 gm
  TOTAL TRIGLYCERIDES CONCENTRATION, Lung: 163.42 mg/100 gm
  TOTAL TRIGLYCERIDES, Adipose Tissue, percentage of control activity: 59.59%
  TOTAL TRIGLYCERIDES, Ham Muscle, percentage of control activity: 98.44%
  TOTAL TRIGLYCERIDES, Heart, percentage of control activity: 97.43%
  TOTAL TRIGLYCERIDES, Intestine, percentage of control activity: 96.57%
  TOTAL TRIGLYCERIDES, Liver, percentage of control activity: 89.44%
  TOTAL TRIGLYCERIDES, Loin Muscle, percentage of control activity: 86.12%
  TOTAL TRIGLYCERIDES, Lung, percentage of control activity: 95.03%
[2]
  Cholesterol 7α-Hydroxylase, percentage of control: 111.45%
  Cholesterol 7α-hydroxylase: 11.39 nmol/min/mg
chickens
  Platelet Factor 4: 7.27 ng/mL
  Platelet Factor 4, percentage of control: 55.54%
  Thromboxane B2: 16.42 pg/mL
  Thromboxane B2, percentage of control: 63.54%
[3]; [4]
  HDL-CHOLESTEROL CONCENTRATION IN SERUM: 32.65 mg/100 ml
  HDL-CHOLESTEROL, Percentage of Control Activity: 114.29%
  HDL-CHOLESTEROL, percentage of baseline value: 149.36%
  HDL:LDL CHOLESTEROL, Percentage of Control Activity: 82.06%
  LDL-CHOLESTEROL CONCENTRATION IN SERUM: 233.75 mg/100 ml
  LDL-CHOLESTEROL, Percentage of Control Activity: 90.17%
  LDL-CHOLESTEROL, percentage of baseline value: 128.17%
  TOTAL CHOLESTEROL CONCENTRATION IN SERUM: 268.90 mg/100 ml
  TOTAL CHOLESTEROL, Percentage of Control Activity: 75.60%
  TOTAL CHOLESTEROL, percentage of baseline value: 124.45%
[3]; control diet + 50 ppm, 6 weeks
  Apo A1, percentage of control: 104.05%
  Apo A1 concentration in serum: 26.73 ± 1.22 mg/100 ml
  Apo B concentration in serum: 106.63 ± 1.72 mg/100 ml
  Apo B, percentage of control: 72.16%
  Triglycerides concentration in serum: 62.00 ± 1.19 mg/100 ml
  Triglycerides, percentage of control: 80.98%
[3]; control diet + 50 ppm, 21 days
  HDL-CHOLESTEROL CONCENTRATION IN SERUM: 25.68 mg/100 ml
  HDL-CHOLESTEROL, percentage of baseline value: 117.47%
  HDL:LDL CHOLESTEROL, percentage of baseline value: 89.20%
  LDL-CHOLESTEROL CONCENTRATION IN SERUM: 191.05 mg/100 ml
  LDL-CHOLESTEROL, percentage of baseline value: 104.76%
  TOTAL CHOLESTEROL CONCENTRATION IN SERUM: 229.90 mg/100 ml
  TOTAL CHOLESTEROL, percentage of baseline value: 106.33%
[3]; control diet + 50 ppm, 42 days
  Glucagon: 274.41 pg/mL
  Glucagon, percentage of control: 83.05%
  Glucose: 71.89 mg/100 ml
  Glucose, percentage of control: 74.89%
  HDL-CHOLESTEROL CONCENTRATION IN SERUM: 31.81 mg/100 ml
  HDL-CHOLESTEROL, Percentage of Control Activity: 123.75%
  HDL-CHOLESTEROL, percentage of baseline value: 145.52%
  HDL:LDL CHOLESTEROL, Percentage of Control Activity: 55.59%
  HDL:LDL CHOLESTEROL, percentage of baseline value: 74.58%
  Insulin: 20.9 µU/mL
  Insulin, percentage of control: 101.90%
  LDL-CHOLESTEROL CONCENTRATION IN SERUM: 198.01 mg/100 ml
  LDL-CHOLESTEROL, Percentage of Control Activity: 65.51%
  LDL-CHOLESTEROL, percentage of baseline value: 107.48%
  TOTAL CHOLESTEROL CONCENTRATION IN SERUM: 237.64 mg/100 ml
  TOTAL CHOLESTEROL, Percentage of Control Activity: 68.60%
  TOTAL CHOLESTEROL, percentage of baseline value: 107.60%
